Measurements from PubChem BioAssay (NCI).
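Where inhibition never reached the appropriate level, the endpoint shown equals the highest concentration tested. Otherwise, values were interpolated linearly from a five-concentration, 48-hour dose response in 96-well plates. At the GI50, growth is halved. TGI: concentration producing complete growth inhibition.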

Legend:
Assay in all cases: NCI tumour cell line growth inhibition, 48 h
786-0 renal = tested on: 786-0 renal
A549 NSCLC = tested on: A549 NSCLC
ACHN renal = tested on: ACHN renal
BT-549 breast = tested on: BT-549 breast
CAKI-1 renal = tested on: CAKI-1 renal
COLO 205 colon = tested on: COLO 205 colon
DU-145 prostate = tested on: DU-145 prostate
EKVX NSCLC = tested on: EKVX NSCLC
HCC-2998 colon = tested on: HCC-2998 colon
HCT-116 colon = tested on: HCT-116 colon
HCT-15 colon = tested on: HCT-15 colon
HL-60(TB) leukemia = tested on: HL-60(TB) leukemia
HOP-62 NSCLC = tested on: HOP-62 NSCLC
HT29 colon = tested on: HT29 colon
IGROV1 ovarian = tested on: IGROV1 ovarian
K-562 leukemia = tested on: K-562 leukemia
KM12 colon = tested on: KM12 colon
LOX IMVI melanoma = tested on: LOX IMVI melanoma
M14 melanoma = tested on: M14 melanoma
MALME-3M melanoma = tested on: MALME-3M melanoma
MCF7 breast = tested on: MCF7 breast
MDA-MB-435 = tested on: MDA-MB-435
MOLT-4 leukemia = tested on: MOLT-4 leukemia
NCI-H23 lung = tested on: NCI-H23 lung
NCI-H460 lung = tested on: NCI-H460 lung
NCI-H522 lung = tested on: NCI-H522 lung
NCI/ADR-RES ovarian = tested on: NCI/ADR-RES ovarian
OVCAR-3 ovarian = tested on: OVCAR-3 ovarian
OVCAR-4 ovarian = tested on: OVCAR-4 ovarian
OVCAR-5 ovarian = tested on: OVCAR-5 ovarian
OVCAR-8 ovarian = tested on: OVCAR-8 ovarian
PC-3 prostate = tested on: PC-3 prostate
RPMI-8226 leukemia = tested on: RPMI-8226 leukemia
RXF 393 renal = tested on: RXF 393 renal
SF-268 CNS = tested on: SF-268 CNS
SF-295 CNS = tested on: SF-295 CNS
SF-539 CNS = tested on: SF-539 CNS
SK-MEL-2 melanoma = tested on: SK-MEL-2 melanoma
SK-MEL-28 melanoma = tested on: SK-MEL-28 melanoma
SK-OV-3 ovarian = tested on: SK-OV-3 ovarian
SNB-19 CNS = tested on: SNB-19 CNS
SR leukemia = tested on: SR leukemia
T-47D breast = tested on: T-47D breast
TK-10 renal = tested on: TK-10 renal
U251 CNS = tested on: U251 CNS
UACC-257 melanoma = tested on: UACC-257 melanoma
UACC-62 melanoma = tested on: UACC-62 melanoma
UO-31 renal = tested on: UO-31 renal
CCRF-CEM leukemia = tested on: CCRF-CEM leukemia
HOP-92 NSCLC = tested on: HOP-92 NSCLC
MDA-MB-231 breast = tested on: MDA-MB-231 breast
SK-MEL-5 melanoma = tested on: SK-MEL-5 melanoma
SN12C renal = tested on: SN12C renal
SNB-75 CNS = tested on: SNB-75 CNS
SW-620 colon = tested on: SW-620 colon

Structure (SMILES): c1cc2c(s1)SSSSS2
- GI50 (786-0 renal): 14.9 µM
- TGI (786-0 renal): 29.1 µM
- GI50 (A549 NSCLC): 31.8 µM
- TGI (A549 NSCLC): > 100 µM
- GI50 (ACHN renal): 15.5 µM
- TGI (ACHN renal): 31.7 µM
- GI50 (BT-549 breast): 33.8 µM
- TGI (BT-549 breast): 85.9 µM
- GI50 (CAKI-1 renal): 17.8 µM
- TGI (CAKI-1 renal): 36.6 µM
- GI50 (COLO 205 colon): 17.6 µM
- TGI (COLO 205 colon): 46.6 µM
- GI50 (DU-145 prostate): 17.1 µM
- TGI (DU-145 prostate): 34.1 µM
- GI50 (EKVX NSCLC): 34.6 µM
- TGI (EKVX NSCLC): 68.2 µM
- GI50 (HCC-2998 colon): 24 µM
- TGI (HCC-2998 colon): 39.9 µM
- GI50 (HCT-116 colon): 9.06 µM
- TGI (HCT-116 colon): 21.2 µM
- GI50 (HCT-15 colon): 15.8 µM
- TGI (HCT-15 colon): 85.9 µM
- GI50 (HL-60(TB) leukemia): 11.8 µM
- TGI (HL-60(TB) leukemia): > 100 µM
- GI50 (HOP-62 NSCLC): 28.2 µM
- TGI (HOP-62 NSCLC): 55.3 µM
- GI50 (HT29 colon): 23.3 µM
- TGI (HT29 colon): 41.4 µM
- GI50 (IGROV1 ovarian): 19 µM
- TGI (IGROV1 ovarian): 43.1 µM
- GI50 (K-562 leukemia): 16.1 µM
- TGI (K-562 leukemia): > 100 µM
- GI50 (KM12 colon): 19.3 µM
- TGI (KM12 colon): 38.1 µM
- GI50 (LOX IMVI melanoma): 11.9 µM
- TGI (LOX IMVI melanoma): 40.3 µM
- GI50 (M14 melanoma): 11.2 µM
- TGI (M14 melanoma): 29.4 µM
- GI50 (MALME-3M melanoma): 17.1 µM
- TGI (MALME-3M melanoma): 40.2 µM
- GI50 (MCF7 breast): 16.4 µM
- TGI (MCF7 breast): 35 µM
- GI50 (MDA-MB-435): 18.9 µM
- TGI (MDA-MB-435): 35.8 µM
- GI50 (MOLT-4 leukemia): 18.8 µM
- TGI (MOLT-4 leukemia): > 100 µM
- GI50 (NCI-H23 lung): 14.6 µM
- TGI (NCI-H23 lung): 30.7 µM
- GI50 (NCI-H460 lung): 19.9 µM
- TGI (NCI-H460 lung): 42.2 µM
- GI50 (NCI-H522 lung): 27.8 µM
- TGI (NCI-H522 lung): 81.8 µM
- GI50 (NCI/ADR-RES ovarian): 22.8 µM
- TGI (NCI/ADR-RES ovarian): 46.4 µM
- GI50 (OVCAR-3 ovarian): 18 µM
- TGI (OVCAR-3 ovarian): 34.5 µM
- GI50 (OVCAR-4 ovarian): 24.2 µM
- TGI (OVCAR-4 ovarian): 46.9 µM
- GI50 (OVCAR-5 ovarian): 21.1 µM
- TGI (OVCAR-5 ovarian): 36.6 µM
- GI50 (OVCAR-8 ovarian): 36.3 µM
- TGI (OVCAR-8 ovarian): > 100 µM
- GI50 (PC-3 prostate): 16.5 µM
- TGI (PC-3 prostate): 39.6 µM
- GI50 (RPMI-8226 leukemia): 7.06 µM
- TGI (RPMI-8226 leukemia): 29.4 µM
- GI50 (RXF 393 renal): 18.4 µM
- TGI (RXF 393 renal): 41.5 µM
- GI50 (SF-268 CNS): 19.1 µM
- TGI (SF-268 CNS): 38.6 µM
- GI50 (SF-295 CNS): 18.3 µM
- TGI (SF-295 CNS): 36.9 µM
- GI50 (SF-539 CNS): 21.7 µM
- TGI (SF-539 CNS): 39.6 µM
- GI50 (SK-MEL-2 melanoma): 29.3 µM
- TGI (SK-MEL-2 melanoma): > 100 µM
- GI50 (SK-MEL-28 melanoma): 23 µM
- TGI (SK-MEL-28 melanoma): 41.9 µM
- GI50 (SK-OV-3 ovarian): 34.5 µM
- TGI (SK-OV-3 ovarian): 72.7 µM
- GI50 (SNB-19 CNS): 22.9 µM
- TGI (SNB-19 CNS): 47 µM
- GI50 (SR leukemia): 3.17 µM
- TGI (SR leukemia): 22.8 µM
- GI50 (T-47D breast): 13 µM
- TGI (T-47D breast): 32.4 µM
- GI50 (TK-10 renal): 16.7 µM
- TGI (TK-10 renal): 33.5 µM
- GI50 (U251 CNS): 17.6 µM
- TGI (U251 CNS): 39.6 µM
- GI50 (UACC-257 melanoma): 35.2 µM
- TGI (UACC-257 melanoma): > 100 µM
- GI50 (UACC-62 melanoma): 13.8 µM
- TGI (UACC-62 melanoma): 28.1 µM
- GI50 (UO-31 renal): 17.6 µM
- TGI (UO-31 renal): 33.7 µM

Structure (SMILES): [N-]=[N+]=NCCCn1c2c(c3cc4c(cc3c1=O)OCO4)C(=O)c1ccccc1-2
- GI50 (786-0 renal): 67.7 µM
- TGI (786-0 renal): > 100 µM
- GI50 (A549 NSCLC): 93.5 µM
- TGI (A549 NSCLC): > 100 µM
- GI50 (ACHN renal): 13.1 µM
- TGI (ACHN renal): 86 µM
- GI50 (BT-549 breast): > 100 µM
- TGI (BT-549 breast): > 100 µM
- GI50 (CAKI-1 renal): 89.1 µM
- TGI (CAKI-1 renal): > 100 µM
- GI50 (CCRF-CEM leukemia): 39.2 µM
- TGI (CCRF-CEM leukemia): > 100 µM
- GI50 (DU-145 prostate): 17.5 µM
- TGI (DU-145 prostate): > 100 µM
- GI50 (EKVX NSCLC): > 100 µM
- TGI (EKVX NSCLC): > 100 µM
- GI50 (HCC-2998 colon): > 100 µM
- TGI (HCC-2998 colon): > 100 µM
- GI50 (HCT-116 colon): 40.1 µM
- TGI (HCT-116 colon): > 100 µM
- GI50 (HCT-15 colon): > 100 µM
- TGI (HCT-15 colon): > 100 µM
- GI50 (HOP-62 NSCLC): 39 µM
- TGI (HOP-62 NSCLC): > 100 µM
- GI50 (HOP-92 NSCLC): 64.2 µM
- TGI (HOP-92 NSCLC): > 100 µM
- GI50 (HT29 colon): > 100 µM
- TGI (HT29 colon): > 100 µM
- GI50 (K-562 leukemia): 28.7 µM
- TGI (K-562 leukemia): > 100 µM
- GI50 (KM12 colon): > 100 µM
- TGI (KM12 colon): > 100 µM
- GI50 (LOX IMVI melanoma): 13.5 µM
- TGI (LOX IMVI melanoma): > 100 µM
- GI50 (M14 melanoma): 43 µM
- TGI (M14 melanoma): > 100 µM
- GI50 (MCF7 breast): 7.5 µM
- TGI (MCF7 breast): > 100 µM
- GI50 (MDA-MB-231 breast): > 100 µM
- TGI (MDA-MB-231 breast): > 100 µM
- GI50 (MDA-MB-435): 10.3 µM
- TGI (MDA-MB-435): > 100 µM
- GI50 (MOLT-4 leukemia): 0.0905 µM
- TGI (MOLT-4 leukemia): 13.7 µM
- GI50 (NCI-H23 lung): 42.8 µM
- TGI (NCI-H23 lung): > 100 µM
- GI50 (NCI-H460 lung): 62.8 µM
- TGI (NCI-H460 lung): > 100 µM
- GI50 (NCI-H522 lung): 75 µM
- TGI (NCI-H522 lung): > 100 µM
- GI50 (NCI/ADR-RES ovarian): > 100 µM
- TGI (NCI/ADR-RES ovarian): > 100 µM
- GI50 (OVCAR-3 ovarian): 71.9 µM
- TGI (OVCAR-3 ovarian): > 100 µM
- GI50 (OVCAR-4 ovarian): > 100 µM
- TGI (OVCAR-4 ovarian): > 100 µM
- GI50 (OVCAR-8 ovarian): 21.6 µM
- TGI (OVCAR-8 ovarian): 87.3 µM
- GI50 (PC-3 prostate): > 100 µM
- TGI (PC-3 prostate): > 100 µM
- GI50 (RPMI-8226 leukemia): > 100 µM
- TGI (RPMI-8226 leukemia): > 100 µM
- GI50 (SF-268 CNS): > 100 µM
- TGI (SF-268 CNS): > 100 µM
- GI50 (SF-295 CNS): 32.4 µM
- TGI (SF-295 CNS): > 100 µM
- GI50 (SF-539 CNS): > 100 µM
- TGI (SF-539 CNS): > 100 µM
- GI50 (SK-MEL-2 melanoma): 91.1 µM
- TGI (SK-MEL-2 melanoma): > 100 µM
- GI50 (SK-MEL-28 melanoma): > 100 µM
- TGI (SK-MEL-28 melanoma): > 100 µM
- GI50 (SK-MEL-5 melanoma): 3.52 µM
- TGI (SK-MEL-5 melanoma): 31.3 µM
- GI50 (SK-OV-3 ovarian): > 100 µM
- TGI (SK-OV-3 ovarian): > 100 µM
- GI50 (SN12C renal): > 100 µM
- TGI (SN12C renal): > 100 µM
- GI50 (SNB-19 CNS): > 100 µM
- TGI (SNB-19 CNS): > 100 µM
- GI50 (SNB-75 CNS): 72.8 µM
- TGI (SNB-75 CNS): > 100 µM
- GI50 (SW-620 colon): > 100 µM
- TGI (SW-620 colon): > 100 µM
- GI50 (T-47D breast): > 100 µM
- TGI (T-47D breast): > 100 µM
- GI50 (TK-10 renal): 42.6 µM
- TGI (TK-10 renal): > 100 µM
- GI50 (U251 CNS): > 100 µM
- TGI (U251 CNS): > 100 µM
- GI50 (UACC-62 melanoma): 87.3 µM
- TGI (UACC-62 melanoma): > 100 µM
- GI50 (UO-31 renal): > 100 µM
- TGI (UO-31 renal): > 100 µM
